# Target: T1, human Plk4 kinase domain (aa 2-275) (Homo sapiens, UniProt O00444)
# T1 construct: purified 6×His-tagged human Plk4 kinase domain (aa 2-275); 6xHis; made in house; host or cells: E. coli
# T1 sequence (O00444 2-275): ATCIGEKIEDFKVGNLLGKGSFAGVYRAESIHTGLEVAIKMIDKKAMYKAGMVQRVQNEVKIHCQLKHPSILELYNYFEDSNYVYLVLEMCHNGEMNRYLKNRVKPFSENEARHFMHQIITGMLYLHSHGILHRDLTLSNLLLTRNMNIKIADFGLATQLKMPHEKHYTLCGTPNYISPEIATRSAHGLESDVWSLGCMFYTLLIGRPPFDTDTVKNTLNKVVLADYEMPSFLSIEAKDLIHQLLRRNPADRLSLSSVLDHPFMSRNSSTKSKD
# Experiment: Plk4 kinase assay (ADP-Glo)
# Format: biochemical
# Conditions: Table 1
# Summary of the method: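 Enzyme at 2.5-10 nM final, pH 8.0, reacted 4-16 hours at 25° C; ADP generation read by ADP-Glo luminescence. Ki derived from IC50 by Cheng-Prusoff or, for tight binders, Copeland formalism.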
row,Compound,IC50 [nM]
1,COc1c(Nc2cc(C)[nH]n2)nc(Sc2ccc(NC(=O)C3CC3)cc2)nc1N(C)C(C)C,100 to 1000
2,CNCCN(C)c1nc(Sc2ccc(NC(=O)C3CC3)cc2)nc(Nc2cc(C)[nH]n2)c1OC,100 to 1000
3,COc1c(NCCN(C)C)nc(Sc2ccc(NC(=O)C3CC3)cc2)nc1Nc1cc(C)[nH]n1,100 to 1000
4,COc1c(Nc2cc(C)[nH]n2)nc(Sc2ccc(S(=O)(=O)Cc3cccc([N+](=O)[O-])c3)cc2F)nc1N1CCN(CCN(C)C)CC1,< 1000
5,COc1c(Nc2cc(C)[nH]n2)nc(Sc2ccc(S(=O)(=O)Cc3cccc([N+](=O)[O-])c3F)cc2)nc1N1CCCCC1,< 1000
6,COc1c(Nc2cc(C)[nH]n2)nc(Sc2ccc(S(=O)(=O)Cc3cccc([N+](=O)[O-])c3F)cc2)nc1N1CCOCC1,< 1000
7,COc1c(Nc2cc(C)[nH]n2)nc(Sc2ccc(S(=O)(=O)Cc3cc(F)cc([N+](=O)[O-])c3)cc2)nc1N1CCN(CCN(C)C)CC1,< 1000
8,COc1c(Nc2cc(C)[nH]n2)nc(Sc2ccc(S(=O)(=O)Cc3cccc([N+](=O)[O-])c3Cl)cc2)nc1N1CCN(CCN(C)C)CC1,< 1000
9,COc1c(Nc2cc(C)[nH]n2)nc(Sc2ccc(S(=O)(=O)Cc3cccc([N+](=O)[O-])c3F)cc2F)nc1N1CCN(CCN(C)C)CC1,< 1000
10,COc1c(Nc2cc(C)[nH]n2)nc(Sc2ccc(S(=O)(=O)Cc3cccc([N+](=O)[O-])c3)cc2F)nc1N1CCOCC1,< 1000
11,COc1c(Nc2cc(C)[nH]n2)nc(Sc2ccc(S(=O)(=O)Cc3cccc([N+](=O)[O-])c3)cc2F)nc1N1CCOC[C@@H]1C,< 1000
12,COc1c(Nc2cc(C)[nH]n2)nc(Sc2ccc(S(=O)(=O)Cc3cccc([N+](=O)[O-])c3C#N)cc2)nc1N1CCN(CCN(C)C)CC1,< 1000
13,COc1c(Nc2cc(C)[nH]n2)nc(Sc2ccc(S(=O)(=O)Cc3cccc([N+](=O)[O-])c3F)cc2)nc1N1CCC(O)CC1,< 1000
14,COc1c(Nc2cc(C)[nH]n2)nc(Sc2ccc(S(=O)(=O)Cc3cccc([N+](=O)[O-])c3O)cc2)nc1N1CCN(CCN(C)C)CC1,< 1000
15,COc1c(Nc2cc(C)[nH]n2)nc(Sc2ccc(S(=O)(=O)Cc3cccc([N+](=O)[O-])c3)cc2)nc1N1C2CCC1COC2,< 1000
16,COc1c(Nc2cc(C)[nH]n2)nc(Sc2ccc(S(C)(=O)=O)cc2F)nc1N1CCC(CCN(C)C)CC1,< 1000

row,Compound,IC50 [nM]
1,COc1c(Nc2cc(C)[nH]n2)nc(Sc2ccc(S(C)(=O)=O)cc2F)nc1N1CCN(CCN(C)C)CC1,< 1000
2,COc1c(Nc2cc(C)[nH]n2)nc(Sc2ccc(S(C)(=O)=O)cc2Cl)nc1N1CCN(CCN(C)C)CC1,< 1000
3,COc1c(Nc2cc(C)[nH]n2)nc(Sc2ccc(S(C)(=O)=O)cc2Cl)nc1N1CCC(CCN(C)C)CC1,< 1000
4,CCS(=O)(=O)c1ccc(Sc2nc(Nc3cc(C)[nH]n3)c(OC)c(N3CCOCC3)n2)c(Cl)c1,< 1000
5,COc1c(Nc2cc(C)[nH]n2)nc(Sc2ccc(S(=O)(=O)Cc3cccc([N+](=O)[O-])c3F)cc2F)nc1N1CCOC[C@H]1C,< 1000
6,COc1c(Nc2cc(C)[nH]n2)nc(Sc2ccc(S(=O)(=O)Cc3cccc([N+](=O)[O-])c3)cc2F)nc1N1CCOC[C@H]1C,< 1000
7,CCS(=O)(=O)c1ccc(Sc2nc(Nc3cc(C)[nH]n3)c(OC)c(N3CCN(CCN(C)C)CC3)n2)c(Cl)c1,< 1000
8,CCS(=O)(=O)c1ccc(Sc2nc(Nc3cc(C)[nH]n3)c(OC)c(N3CCC(CCN(C)C)CC3)n2)c(Cl)c1,< 1000
9,CCS(=O)(=O)c1ccc(Sc2nc(Nc3cc(C)[nH]n3)c(OC)c(N3CCN(C)CC3)n2)c(Cl)c1,< 1000
10,CCS(=O)(=O)c1ccc(Sc2nc(Nc3cc(C)[nH]n3)c(OC)c(N3CCN(CCN(C)C)CC3)n2)c(F)c1,< 1000
11,CCS(=O)(=O)c1ccc(Sc2nc(Nc3cc(C)[nH]n3)c(OC)c(N3CCC(CCN(C)C)CC3)n2)c(F)c1,< 1000
12,CCS(=O)(=O)c1ccc(Sc2nc(Nc3cc(C)[nH]n3)c(OC)c(N3CCOC[C@@H]3C)n2)c(Cl)c1,< 1000
13,COc1c(Nc2cc(C)[nH]n2)nc(Sc2ccc(S(C)(=O)=O)cc2F)nc1N1CCOC[C@@H]1C,< 1000
14,COc1c(Nc2cc(C)[nH]n2)nc(Sc2ccc(S(=O)(=O)Cc3cccc(F)c3F)cc2F)nc1N1CCCCC1,< 1000
15,COc1c(Nc2cc(C)[nH]n2)nc(Sc2ccc(S(=O)(=O)Cc3cccc(F)c3F)cc2F)nc1N1CCOCC1,< 1000
16,COc1c(Nc2cc(C)[nH]n2)nc(Sc2ccc(S(=O)(=O)Cc3cccc(F)c3F)cc2F)nc1N1CCN(CCN(C)C)CC1,< 1000

# Other lines, results leading:
row,IC50 [nM],Compound
1,< 1000,COc1c(Nc2cc(C)[nH]n2)nc(Sc2ccc(NC(=O)C3CC3)cc2)nc1N1CCOCC1
2,< 1000,COc1c(Nc2cc(C)[nH]n2)nc(Sc2ccc(NC(=O)C3CC3)cc2)nc1N1CCNCC1
3,< 1000,COCCNc1nc(Sc2ccc(NC(=O)C3CC3)cc2)nc(Nc2cc(C)[nH]n2)c1OC
4,< 1000,COc1c(Nc2cc(C)[nH]n2)nc(Sc2ccc(S(=O)(=O)Cc3ccccc3)cc2)nc1N1CCO[C@@H](C)C1
5,< 1000,COc1c(Nc2cc(C)[nH]n2)nc(Sc2ccc(S(=O)(=O)Cc3ccccc3)cc2)nc1N1CC2CCC(C1)O2
6,< 1000,COc1cccc(CS(=O)(=O)c2ccc(Sc3nc(Nc4cc(C)[nH]n4)c(OC)c(N4CCN(CCN(C)Cc5ccccc5)CC4)n3)cc2)c1
7,< 1000,COc1c(Nc2cc(C)[nH]n2)nc(Sc2ccc(S(=O)(=O)Cc3ccccc3C)cc2)nc1N1CCN(CCN(C)C)CC1
8,< 1000,COc1c(Nc2cc(C)[nH]n2)nc(Sc2ccc(S(=O)(=O)Cc3ccccc3)cc2)nc1N1CCOC[C@H]1C
9,< 1000,COc1c(Nc2cc(C)[nH]n2)nc(Sc2ccc(S(=O)(=O)Cc3ccccc3)cc2)nc1N1CCOC[C@@H]1C
10,< 1000,COc1c(Nc2cc(C)[nH]n2)nc(Sc2ccc(S(=O)(=O)Cc3cccc(F)c3)cc2)nc1N1CCN(CCN(C)C)CC1
11,< 1000,COc1c(Nc2cc(C)[nH]n2)nc(Sc2ccc(S(=O)(=O)Cc3cccc([N+](=O)[O-])c3F)cc2)nc1N1CCN(CCN(C)C)CC1
12,< 1000,COC(=O)c1cccc(CS(=O)(=O)c2ccc(Sc3nc(Nc4cc(C)[nH]n4)c(OC)c(N4CCN(CCN(C)C)CC4)n3)cc2)c1
13,< 1000,COc1c(Nc2cc(C)[nH]n2)nc(Sc2ccc(S(=O)(=O)Cc3cccc(C(N)=O)c3)cc2)nc1N1CCN(CCN(C)C)CC1
14,< 1000,COc1c(Nc2cc(C)[nH]n2)nc(Sc2ccc(S(=O)(=O)Cc3ccccc3)cc2)nc1N1CCN(CCN2CCC2)CC1
15,< 1000,COc1c(Nc2cc(C)[nH]n2)nc(Sc2ccc(S(=O)(=O)Cc3ccccc3NC(C)=O)cc2)nc1N1CCN(CCN(C)C)CC1
16,< 1000,COc1c(Nc2cc(C)[nH]n2)nc(Sc2ccc(S(=O)(=O)Cc3ccccc3C(F)(F)F)cc2)nc1N1CCN(CCN(C)C)CC1
17,< 1000,COc1c(Nc2cc(C)[nH]n2)nc(Sc2ccc(S(=O)(=O)Cc3ccccc3N(C)C)cc2)nc1N1CCN(CCN(C)C)CC1
18,< 1000,COc1c(Nc2cc(C)[nH]n2)nc(Sc2ccc(S(=O)(=O)Cc3ccccc3-c3ccccc3)cc2)nc1N1CCN(CCN(C)C)CC1

row,IC50 [nM],Compound
1,< 1000,COc1c(Nc2cc(C)[nH]n2)nc(Sc2ccc(S(=O)(=O)Cc3ccccc3C#N)cc2)nc1N1CCN(CCN(C)C)CC1
2,< 1000,COc1c(Nc2cc(C)[nH]n2)nc(Sc2ccc(S(=O)(=O)Cc3cccc(C(=O)N(C)C)c3)cc2)nc1N1CCN(CCN(C)C)CC1
3,< 1000,COc1c(Nc2cc(C)[nH]n2)nc(Sc2ccc(S(=O)(=O)Cc3ccccc3C(N)=O)cc2)nc1N1CCN(CCN(C)C)CC1
4,< 1000,COc1c(Nc2cc(C)[nH]n2)nc(Sc2ccc(S(=O)(=O)Cc3ccccc3)cc2)nc1N1CCC(CCC23CC4CCC(C2)N43)CC1 (centres unmarked)
5,< 1000,COc1c(Nc2cc(C)[nH]n2)nc(Sc2ccc(S(=O)(=O)Cc3cccc([N+](=O)[O-])c3)cc2)nc1N1CCOC[C@H]1C
6,< 1000,COc1c(Nc2cc(C)[nH]n2)nc(Sc2ccc(S(=O)(=O)Cc3ccccc3)cc2)nc1N1CCN(C2CCNCC2)CC1
7,< 1000,COc1c(Nc2cc(C)[nH]n2)nc(Sc2ccc(S(=O)(=O)Cc3ccccc3)cc2Cl)nc1N1CCN(CCN(C)C)CC1
8,< 1000,COc1c(Nc2cc(C)[nH]n2)nc(Sc2ccc(S(=O)(=O)Cc3cccc([N+](=O)[O-])c3)cc2)nc1N1CCO[C@H](C)C1
9,< 1000,COc1c(Nc2cc(C)[nH]n2)nc(Sc2ccc(S(=O)(=O)Cc3cccc([N+](=O)[O-])c3)cc2)nc1N1CCO[C@@H](C)C1
10,< 1000,COc1c(Nc2cc(C)[nH]n2)nc(Sc2ccc(S(=O)(=O)Cc3cccc(NC(C)=O)c3)cc2)nc1N1CCN(CCN(C)C)CC1
11,< 1000,COc1c(Nc2cc(C)[nH]n2)nc(Sc2ccc(S(=O)(=O)Cc3cccc(N(C)C)c3)cc2)nc1N1CCN(CCN(C)C)CC1
12,< 1000,COC(=O)c1ccccc1CS(=O)(=O)c1ccc(Sc2nc(Nc3cc(C)[nH]n3)c(OC)c(N3CCN(CCN(C)C)CC3)n2)cc1
13,< 1000,COc1c(Nc2cc(C)[nH]n2)nc(Sc2ccc(S(=O)(=O)Cc3ccccc3C(=O)N(C)C)cc2)nc1N1CCN(CCN(C)C)CC1
14,< 1000,COc1c(Nc2cc(C)[nH]n2)nc(Sc2ccc(S(=O)(=O)Cc3cccc(C(=O)O)c3)cc2)nc1N1CCN(CCN(C)C)CC1
15,< 1000,COc1c(Nc2cc(C)[nH]n2)nc(Sc2ccc(S(=O)(=O)Cc3ccccc3C(=O)O)cc2)nc1N1CCN(CCN(C)C)CC1
16,< 1000,COc1ccc([N+](=O)[O-])cc1CS(=O)(=O)c1ccc(Sc2nc(Nc3cc(C)[nH]n3)c(OC)c(N3CCN(CCN(C)C)CC3)n2)cc1
17,< 1000,COc1c(CS(=O)(=O)c2ccc(Sc3nc(Nc4cc(C)[nH]n4)c(OC)c(N4CCN(CCN(C)C)CC4)n3)cc2)cccc1[N+](=O)[O-]
18,< 1000,COc1c(Nc2cc(C)[nH]n2)nc(Sc2ccc(S(=O)(=O)Cc3cc([N+](=O)[O-])ccc3F)cc2)nc1N1CCN(CCN(C)C)CC1
